From ChEMBL document CHEMBL2439971, “Design, synthesis and antiproliferative evaluation of fluorenone analogs with DNA topoisomerase I inhibitory properties” (Bioorg Med Chem, 2013)
Active and inactive are the calls of the source. No cut-off for these calls is given here.

What was measured:
Homo sapiens = species: Homo sapiens; assay: Inhibition of telomerase (unknown origin) at 10 uM TRAP assay
CAKI-1 = assay: Cytotoxicity against human CAKI-1 cells at 10 uM after 48 hrs by sulforhodamine B assay relative to control; format: functional
MDA-MB-468 = assay: Cytotoxicity against human MDA-MB-468 cells at 10 uM after 48 hrs by sulforhodamine B assay relative to control; format: functional
T47D = assay: Cytotoxicity against human T47D cells at 10 uM after 48 hrs by sulforhodamine B assay relative to control; format: functional
BT-549 = assay: Cytotoxicity against human BT549 cells at 10 uM after 48 hrs by sulforhodamine B assay relative to control; format: functional
[1] = Cytotoxicity against human Hs 578T cells at 10 uM after 48 hrs by sulforhodamine B assay relative to control; format: functional
MDA-MB-231 = assay: Cytotoxicity against human MDA-MB-231 cells at 10 uM after 48 hrs by sulforhodamine B assay relative to control; format: functional
MCF7 = assay: Cytotoxicity against human MCF7 cells at 10 uM after 48 hrs by sulforhodamine B assay relative to control; format: functional
DU-145 = assay: Cytotoxicity against human DU145 cells at 10 uM after 48 hrs by sulforhodamine B assay relative to control; format: functional
PC-3 [2] = assay: Cytotoxicity against human PC3 cells at 10 uM after 48 hrs by sulforhodamine B assay relative to control; format: functional
UO-31 = assay: Cytotoxicity against human UO31 cells at 10 uM after 48 hrs by sulforhodamine B assay relative to control; format: functional
TK-10 = assay: Cytotoxicity against human TK10 cells at 10 uM after 48 hrs by sulforhodamine B assay relative to control; format: functional
SN12C = assay: Cytotoxicity against human SN12C cells at 10 uM after 48 hrs by sulforhodamine B assay relative to control; format: functional
RXF 393 = assay: Cytotoxicity against human RXF393 cells at 10 uM after 48 hrs by sulforhodamine B assay relative to control; format: functional
ACHN = assay: Cytotoxicity against human ACHN cells at 10 uM after 48 hrs by sulforhodamine B assay relative to control; format: functional
786-0 = assay: Cytotoxicity against human 786-0 cells at 10 uM after 48 hrs by sulforhodamine B assay relative to control; format: functional
NCI/ADR-RES = assay: Cytotoxicity against human NCI/ADR-RES cells at 10 uM after 48 hrs by sulforhodamine B assay relative to control; format: functional
OVCAR-8 = assay: Cytotoxicity against human OVCAR8 cells at 10 uM after 48 hrs by sulforhodamine B assay relative to control; format: functional
OVCAR-5 = assay: Cytotoxicity against human OVCAR5 cells at 10 uM after 48 hrs by sulforhodamine B assay relative to control; format: functional
OVCAR-4 = assay: Cytotoxicity against human OVCAR4 cells at 10 uM after 48 hrs by sulforhodamine B assay relative to control; format: functional
OVCAR-3 = assay: Cytotoxicity against human OVCAR3 cells at 10 uM after 48 hrs by sulforhodamine B assay relative to control; format: functional
IGROV-1 = assay: Cytotoxicity against human IGROV1 cells at 10 uM after 48 hrs by sulforhodamine B assay relative to control; format: functional
UACC-62 = assay: Cytotoxicity against human UACC62 cells at 10 uM after 48 hrs by sulforhodamine B assay relative to control; format: functional
UACC-257 = assay: Cytotoxicity against human UACC257 cells at 10 uM after 48 hrs by sulforhodamine B assay relative to control; format: functional
SK-MEL-5 = assay: Cytotoxicity against human SK-MEL-5 cells at 10 uM after 48 hrs by sulforhodamine B assay relative to control; format: functional
SK-MEL-28 = assay: Cytotoxicity against human SK-MEL-28 cells at 10 uM after 48 hrs by sulforhodamine B assay relative to control; format: functional
SK-MEL-2 = assay: Cytotoxicity against human SK-MEL-2 cells at 10 uM after 48 hrs by sulforhodamine B assay relative to control; format: functional
MDA-MB-435 = assay: Cytotoxicity against human MDA-MB-435 cells at 10 uM after 48 hrs by sulforhodamine B assay relative to control; format: functional
M14 = assay: Cytotoxicity against human M14 cells at 10 uM after 48 hrs by sulforhodamine B assay relative to control; format: functional
Malme-3M = assay: Cytotoxicity against human MALME-3M cells at 10 uM after 48 hrs by sulforhodamine B assay relative to control; format: functional
LOX IMVI = assay: Cytotoxicity against human LOXIMVI cells at 10 uM after 48 hrs by sulforhodamine B assay relative to control; format: functional
SNB-75 = assay: Cytotoxicity against human SNB75 cells at 10 uM after 48 hrs by sulforhodamine B assay relative to control; format: functional
U-251 = assay: Cytotoxicity against human U251 cells at 10 uM after 48 hrs by sulforhodamine B assay relative to control; format: functional
SF-539 = assay: Cytotoxicity against human SF539 cells at 10 uM after 48 hrs by sulforhodamine B assay relative to control; format: functional
SNB-19 = assay: Cytotoxicity against human SNB19 cells at 10 uM after 48 hrs by sulforhodamine B assay relative to control; format: functional
SF-295 = assay: Cytotoxicity against human SF295 cells at 10 uM after 48 hrs by sulforhodamine B assay relative to control; format: functional
SF-268 = assay: Cytotoxicity against human SF268 cells at 10 uM after 48 hrs by sulforhodamine B assay relative to control; format: functional
SW-620 = assay: Cytotoxicity against human SW620 cells at 10 uM after 48 hrs by sulforhodamine B assay relative to control; format: functional
KM12 = assay: Cytotoxicity against human KM12 cells at 10 uM after 48 hrs by sulforhodamine B assay relative to control; format: functional
HT-29 = assay: Cytotoxicity against human HT-29 cells at 10 uM after 48 hrs by sulforhodamine B assay relative to control; format: functional
HCT-15 = assay: Cytotoxicity against human HCT15 cells at 10 uM after 48 hrs by sulforhodamine B assay relative to control; format: functional
HCT-116 = assay: Cytotoxicity against human HCT116 cells at 10 uM after 48 hrs by sulforhodamine B assay relative to control; format: functional
HCC 2998 = assay: Cytotoxicity against human HCC2998 cells at 10 uM after 48 hrs by sulforhodamine B assay relative to control; format: functional
COLO 205 = assay: Cytotoxicity against human COLO205 cells at 10 uM after 48 hrs by sulforhodamine B assay relative to control; format: functional
NCI-H522 = assay: Cytotoxicity against human NCI-H522 cells at 10 uM after 48 hrs by sulforhodamine B assay relative to control; format: functional
NCI-H460 = assay: Cytotoxicity against human NCI-H460 cells at 10 uM after 48 hrs by sulforhodamine B assay relative to control; format: functional
NCI-H322M = assay: Cytotoxicity against human NCI-H322M cells at 10 uM after 48 hrs by sulforhodamine B assay relative to control; format: functional
NCI-H23 = assay: Cytotoxicity against human NCI-H23 cells at 10 uM after 48 hrs by sulforhodamine B assay relative to control; format: functional
NCI-H226 = assay: Cytotoxicity against human NCI-H226 cells at 10 uM after 48 hrs by sulforhodamine B assay relative to control; format: functional
HOP-62 = assay: Cytotoxicity against human HOP62 cells at 10 uM after 48 hrs by sulforhodamine B assay relative to control; format: functional
[3] = Cytotoxicity against human EKVX cells at 10 uM after 48 hrs by sulforhodamine B assay relative to control; format: functional
A549 = assay: Cytotoxicity against human A549 cells at 10 uM after 48 hrs by sulforhodamine B assay relative to control; format: functional
SR = assay: Cytotoxicity against human SR cells at 10 uM after 48 hrs by sulforhodamine B assay relative to control; format: functional
RPMI-8226 = assay: Cytotoxicity against human RPMI8226 cells at 10 uM after 48 hrs by sulforhodamine B assay relative to control; format: functional
MOLT-4 = assay: Cytotoxicity against human MOLT4 cells at 10 uM after 48 hrs by sulforhodamine B assay relative to control; format: functional
K562 = assay: Cytotoxicity against human K562 cells at 10 uM after 48 hrs by sulforhodamine B assay relative to control; format: functional
HL-60(TB) = assay: Cytotoxicity against human HL-60(TB) cells at 10 uM after 48 hrs by sulforhodamine B assay relative to control; format: functional
CCRF-CEM = assay: Cytotoxicity against human CCRF-CEM cells at 10 uM after 48 hrs by sulforhodamine B assay relative to control; format: functional
PC-3 [4] = assay: Cytotoxicity against human PC3 cells after 48 hrs by sulforhodamine B assay; format: functional, cell-based; conditions: PC-3, 48 h

Structure (SMILES): CCCSCC(=O)Nc1ccc2c(c1)C(=O)c1cc(NC(=O)CSCCC)ccc1-2
- inhibition (Homo sapiens): inactive
- Activity (CAKI-1): 116.5%
- Activity (MDA-MB-468): 98.19%
- Activity (T47D): 94.56%
- Activity (BT-549): 79.13%
- Activity [1]: 92.42%
- Activity (MDA-MB-231): 110.09%
- Activity (MCF7): 92.24%
- Activity (DU-145): 111.27%
- Activity (PC-3 [2]): 94.41%
- Activity (UO-31): 104.91%
- Activity (TK-10): 109.43%
- Activity (SN12C): 102.58%
- Activity (RXF 393): 73.43%
- Activity (ACHN): 110.7%
- Activity (786-0): 88.03%
- Activity (NCI/ADR-RES): 100.59%
- Activity (OVCAR-8): 122.23%
- Activity (OVCAR-5): 106.86%
- Activity (OVCAR-4): 106.85%
- Activity (OVCAR-3): 108.65%
- Activity (IGROV-1): 103.61%
- Activity (UACC-62): 107.45%
- Activity (UACC-257): 137.38%
- Activity (SK-MEL-5): 91.99%
- Activity (SK-MEL-28): 90.58%
- Activity (SK-MEL-2): 106.67%
- Activity (MDA-MB-435): 102.08%
- Activity (M14): 99.86%
- Activity (Malme-3M): 107%
- Activity (LOX IMVI): 90.88%
- Activity (SNB-75): 88.25%
- Activity (U-251): 82.28%
- Activity (SF-539): 77.18%
- Activity (SNB-19): 102.55%
- Activity (SF-295): 69.6%
- Activity (SF-268): 121.78%
- Activity (SW-620): 117.49%
- Activity (KM12): 90.34%
- Activity (HT-29): 93.31%
- Activity (HCT-15): 86.05%
- Activity (HCT-116): 97.47%
- Activity (HCC 2998): 101.22%
- Activity (COLO 205): 111.93%
- Activity (NCI-H522): 80.15%
- Activity (NCI-H460): 110.9%
- Activity (NCI-H322M): 84.33%
- Activity (NCI-H23): 98.99%
- Activity (NCI-H226): 110.7%
- Activity (HOP-62): 106.36%
- Activity [3]: 100.02%
- Activity (A549): 99.19%
- Activity (SR): 76.63%
- Activity (RPMI-8226): 45.12%
- Activity (MOLT-4): 82.96%
- Activity (K562): 84.45%
- Activity (HL-60(TB)): 99.03%
- Activity (CCRF-CEM): 90.86%
- IC50 (PC-3 [4]): > 30 µM

Structure (SMILES): O=C(CCN1CCOCC1)Nc1ccc2c(c1)C(=O)c1cc(NC(=O)CCN3CCOCC3)ccc1-2
- inhibition (Homo sapiens): inactive
- Activity (CAKI-1): 96.99%
- Activity (MDA-MB-468): 101.73%
- Activity (T47D): 101.34%
- Activity (BT-549): 113.53%
- Activity [1]: 101.67%
- Activity (MDA-MB-231): 122.26%
- Activity (MCF7): 88.76%
- Activity (DU-145): 117.55%
- Activity (PC-3 [2]): 113.85%
- Activity (UO-31): 86.58%
- Activity (TK-10): 112.26%
- Activity (SN12C): 104.8%
- Activity (RXF 393): 99.09%
- Activity (ACHN): 101.15%
- Activity (786-0): 110.24%
- Activity (NCI/ADR-RES): 102.84%
- Activity (OVCAR-8): 103.76%
- Activity (OVCAR-5): 103.99%
- Activity (OVCAR-4): 105.22%
- Activity (OVCAR-3): 121.23%
- Activity (IGROV-1): 95.95%
- Activity (UACC-62): 122.9%
- Activity (UACC-257): 113.13%
- Activity (SK-MEL-5): 102.76%
- Activity (SK-MEL-28): 104.41%
- Activity (SK-MEL-2): 131.96%
- Activity (MDA-MB-435): 104.2%
- Activity (M14): 127.51%
- Activity (Malme-3M): 118.44%
- Activity (LOX IMVI): 89.4%
- Activity (SNB-75): 82.97%
- Activity (U-251): 94.41%
- Activity (SF-539): 107.54%
- Activity (SNB-19): 110.22%
- Activity (SF-295): 105.19%
- Activity (SF-268): 115.57%
- Activity (SW-620): 106.16%
- Activity (KM12): 105.8%
- Activity (HT-29): 111.58%
- Activity (HCT-15): 108.42%
- Activity (HCT-116): 114.57%
- Activity (HCC 2998): 100.06%
- Activity (COLO 205): 105.48%
- Activity (NCI-H522): 102.66%
- Activity (NCI-H460): 105.97%
- Activity (NCI-H322M): 109.97%
- Activity (NCI-H23): 94.62%
- Activity (NCI-H226): 109.63%
- Activity (HOP-62): 115.73%
- Activity [3]: 99.88%
- Activity (A549): 98.13%
- Activity (SR): 98.5%
- Activity (RPMI-8226): 99.87%
- Activity (MOLT-4): 94.98%
- Activity (K562): 99.03%
- Activity (HL-60(TB)): 112.24%
- Activity (CCRF-CEM): 92.01%
- IC50 (PC-3 [4]): > 30 µM
